Columns and labels:
[1] = system: M5076 reticular cell Sarcoma; test: M5076 Sarcoma test; assay type: in vivo, BDF1 mice; conditions: Table VIII, i.p. days 1, 5, 9, 13 and 17, control 28.5 days
Experimental: The M5076 reticular cell Sarcoma is propagated as subcutaneous implants in C57B2/6 female mice. In the assays for antitumor activity, BDF1 mice of either sex were inoculated intraperitoneally with 0.5 ml of a 10% tumor brei. LL-E33288 antibiotics were tested in the M5076 system as a complex (Bromo-complex) of all components. Test compounds were administered intraperitoneally on days 1, 5, 9, 13 and 17 relative to tumor inoculation on day zero. The median survival time in days was determined for each drug dose used on day 60 and the ratio of survival time for treated (T)/control (C) animals were calculated. The results of this test appear in Table VIII compared to the results obtained with Cisplatin. If T/C X 100 (%) is 125 or over, the tested compound is considered to have significant anti-tumor activity.

[2] = system: Serratia marcescens; test: in vitro antibacterial activity, agar dilution MIC; assay type: cell-based
Experimental: (§1) The in vitro antibacterial activity of LL-E33288 components was determined against a spectrum of gram-positive and gram-negative bacteria by a standard agar dilution method. Mueller-Hinton again containing two-fold decreasing concentrations of the antibiotics were poured into petri plates. the agar surfaces were inoculated with 1 to 5 x 10^4 colong forming units of bacteria by means of the steers replicating device.

[3] = system: Enterobacter aerogenes; test: in vitro antibacterial activity, agar dilution MIC; assay type: cell-based; conditions: Enterobacter aerogenes IO 83-44
Experimental: as §1

[4] = system: Klebsiella pneumoniae; test: in vitro antibacterial activity, agar dilution MIC; assay type: cell-based
Experimental: as §1

[5] = system: Escherichia coli; test: in vitro antibacterial activity, agar dilution MIC; assay type: cell-based
Experimental: as §1

[6] = system: Citrobacter freundii; test: in vitro antibacterial activity, agar dilution MIC; assay type: cell-based; conditions: Citrobacter freundii IO 83-13
Experimental: as §1

[7] = system: Acinetobacter sp.; test: in vitro antibacterial activity, agar dilution MIC; assay type: cell-based
Experimental: as §1

[8] = system: Providencia stuartii; test: in vitro antibacterial activity, agar dilution MIC; assay type: cell-based; conditions: Providencia stuartii CMC 83-82
Experimental: as §1

[9] = system: Enterobacter cloacae; test: in vitro antibacterial activity, agar dilution MIC; assay type: cell-based; conditions: Enterobacter cloacae CMC 84-4
Experimental: as §1

[10] = system: Citrobacter diversus; test: in vitro antibacterial activity, agar dilution MIC; assay type: cell-based; conditions: Citrobacter diversus K 82-84
Experimental: as §1

[11] = system: Morganella morganii; test: in vitro antibacterial activity, agar dilution MIC; assay type: cell-based; conditions: Morganella morganii IO 83-18
Experimental: as §1

N.N.[Cl][Pt][Cl] [Cisplatin, reference compound]
Median Survival ([1]; dose 0.25 mg/kg): 45 days
T/C x 100 ([1]; dose 0.25 mg/kg): 158%
Median Survival ([1]; dose 0.5 mg/kg): 44.5 days
T/C x 100 ([1]; dose 0.5 mg/kg): 156%
Median Survival ([1]; dose 1 mg/kg): 30 days
T/C x 100 ([1]; dose 1 mg/kg): 105%

CCN[C@H]1CO[C@@H](O[C@H]2[C@H](O[C@H]3C#CC=CC#C[C@@]4(O)CC(=O)C(NC(=O)OC)=C3/C4=C\CSSSC)O[C@H](C)[C@@H](NO[C@H]3C[C@H](O)[C@H](SC(=O)c4c(C)c(I)c(O[C@@H]5O[C@@H](C)[C@H](O)[C@@H](OC)[C@H]5O)c(OC)c4OC)[C@@H](C)O3)[C@@H]2O)C[C@@H]1OC (stereo in doubt) [LL-E33288γ1-I]
Minimal Inhibitory Concentration ([2]; Serratia marcescens CMC 83-27): 0.25 µg/mL
Minimal Inhibitory Concentration ([2]; Serratia marcescens F35 (MP)): 0.12 µg/mL
Minimal Inhibitory Concentration [3]: 0.50 µg/mL
Minimal Inhibitory Concentration ([4]; Klebsiella pneumoniae AD (MP)): 0.25 µg/mL
Minimal Inhibitory Concentration ([4]; Klebsiella pneumoniae CMC 84-5): 0.25 µg/mL
Minimal Inhibitory Concentration ([5]; Escherichia coli ATCC 25922): 0.25 µg/mL
Minimal Inhibitory Concentration ([5]; Escherichia coli CMC 84-11, about 18 hours, 35°C): 0.25 µg/mL
Minimal Inhibitory Concentration ([5]; Escherichia coli No. 311-(MP)): 0.25 µg/mL
Minimal Inhibitory Concentration [6]: 0.12 µg/mL
Minimal Inhibitory Concentration ([7]; Acinetobacter sp. CMC 83-89): 0.12 µg/mL
Minimal Inhibitory Concentration ([7]; Acinetobacter sp. IO 83-49): 0.06 µg/mL
Minimal Inhibitory Concentration [8]: 0.25 µg/mL
Minimal Inhibitory Concentration [9]: 0.50 µg/mL
Minimal Inhibitory Concentration [10]: 0.25 µg/mL
Minimal Inhibitory Concentration [11]: 0.25 µg/mL

From patent EP0182152B1, “Antitumor antibiotics (LL-E33288 Complex)” (AMERICAN CYANAMID COMPANY, priority 1984, dated 1986)
